SMILES strings stand for the structures. Peptide text beside a SMILES is read from it.

The values below come from PMC4829254, “Complex Minigene Library Vaccination for Discovery of Pre-Erythrocytic Plasmodium T Cell Antigens” (PLoS ONE, 2016).

The target of this test is T1, H2-K^d (Mus musculus, UniProt P01902).
T1 construct: expressed in transfected cells; host or cells: RMA/S lymphoma cell line expressing H2-K^d
T1 sequence (P01902 22-368): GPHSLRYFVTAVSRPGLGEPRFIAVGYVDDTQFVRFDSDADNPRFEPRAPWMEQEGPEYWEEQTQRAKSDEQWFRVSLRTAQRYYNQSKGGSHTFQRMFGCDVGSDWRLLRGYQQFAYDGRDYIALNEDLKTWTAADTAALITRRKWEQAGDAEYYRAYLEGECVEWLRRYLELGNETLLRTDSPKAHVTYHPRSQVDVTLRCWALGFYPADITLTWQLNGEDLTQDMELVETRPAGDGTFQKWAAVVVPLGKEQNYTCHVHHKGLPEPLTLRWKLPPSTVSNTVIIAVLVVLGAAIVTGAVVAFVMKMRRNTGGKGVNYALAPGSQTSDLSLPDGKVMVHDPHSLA
T1 sequence (P01887 21-119 partner): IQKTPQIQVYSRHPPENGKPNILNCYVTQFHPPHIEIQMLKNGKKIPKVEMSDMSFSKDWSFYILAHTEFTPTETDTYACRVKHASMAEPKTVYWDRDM
In words: MHC binding assay (RMA/S cells expressing H2-K^d). Further details: species or system murine. As to conditions: H2-K^d stabilization, read-out: apparent Kd. On the procedure: RMA/S cells expressing H2-K^d were used to test MHC binding as described.
The affinity of SYQKSINNI for H2-K^d was determined using an RMA/S lymphoma cell line expressing H2-Kd as previously described.
Fig 4 The PyMDH epitope binds to murine H2-K^d. RMA/S cells expressing H2-K^d were incubated with peptides for PyCSP (squares), PyMDH (circles) or non-specific peptide. PyCSP and PyMDH peptides stabilized H2-K^d, indicative of specific MHC binding. Error bars indicate the 95% confidence interval.

With `CC[C@H](C)[C@H](NC(=O)[C@H](CC(N)=O)NC(=O)[C@H](CC(N)=O)NC(=O)[C@@H](NC(=O)[C@H](CO)NC(=O)[C@H](CCCCN)NC(=O)[C@H](CCC(N)=O)NC(=O)[C@H](Cc1ccc(O)cc1)NC(=O)[C@@H](N)CO)[C@@H](C)CC)C(=O)O` [PyMDH peptide] (H-SYQKSINNI-OH), the Kd was found to be 11.6 nM. Next, `CC[C@H](C)[C@H](NC(=O)[C@H](CCC(N)=O)NC(=O)[C@H](CCC(=O)O)NC(=O)[C@H](C)NC(=O)[C@H](CO)NC(=O)[C@@H]1CCCN1C(=O)[C@@H](NC(=O)[C@H](Cc1ccc(O)cc1)NC(=O)[C@@H](N)CO)C(C)C)C(=O)O` [PyCSP peptide] (H-SYVPSAEQI-OH): 9.6 nM.
